Experiments:
Type in all cases: in vivo
Conditions in all cases: evaluated after 13 days
Setaria faberi (SETFA) [1] = assay: Pre-emergence Test, Setaria faberi (SETFA)
[2] = tested on: Echinochloa crus-galli (ECHCG); assay: Pre-emergence Test, Echinochloa crus-galli (ECHCG)
Zea mays (ZEAMX) [3] = assay: Pre-emergence Test, Zea mays (ZEAMX)
[4] = tested on: Ipomoea hederacea (IPOHE); assay: Pre-emergence Test, Ipomoea hederacea (IPOHE)
[5] = tested on: Amaranthus palmeri (AMAPA); assay: Pre-emergence Test, Amaranthus palmeri (AMAPA)
[6] = tested on: Amaranthus retoflexus (AMARE); assay: Pre-emergence Test, Amaranthus retoflexus (AMARE)
Setaria faberi (SETFA) [7] = assay: Post-emergence Test, Setaria faberi (SETFA); parameters: key to percentage damage caused to the plant, SETFA (five-point scale): 5=81-100%, 4=61-80%, 3=41-60%, 2=21-40%, 1=0-20% damage
Procedure, shortened: (§1)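 Sown pots in a glasshouse (24/16 °C day/night, 14 h light, 65% humidity) were sprayed with compound in acetone/water (50:50) with 0.5% Tween 20, at 1000 g/ha unless otherwise stated. Damage was assessed 13 days after spraying and scored 1–5 (5=81-100%, 1=0-20%).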

[8] = tested on: Echinochloa crus-galli (ECHCG); assay: Post-emergence Test, Echinochloa crus-galli (ECHCG); parameters: key to percentage damage caused to the plant, ECHCG (five-point scale): 5=81-100%, 4=61-80%, 3=41-60%, 2=21-40%, 1=0-20% damage
Procedure, shortened: as §1

Zea mays (ZEAMX) [9] = assay: Post-emergence Test, Zea mays (ZEAMX); parameters: key to percentage damage caused to the plant, ZEAMX (five-point scale): 5=81-100%, 4=61-80%, 3=41-60%, 2=21-40%, 1=0-20% damage
Procedure, shortened: as §1

[10] = tested on: Ipomoea hederacea (IPOHE); assay: Post-emergence Test, Ipomoea hederacea (IPOHE); parameters: key to percentage damage caused to the plant, IPOHE (five-point scale): 5=81-100%, 4=61-80%, 3=41-60%, 2=21-40%, 1=0-20% damage
Procedure, shortened: as §1

[11] = tested on: Amaranthus palmeri (AMAPA); assay: Post-emergence Test, Amaranthus palmeri (AMAPA); parameters: key: 5=81-100%, 4=61-80%, 3=41-60%, 2=21-40%, 1=0-20% damage
Procedure, shortened: as §1

[12] = tested on: Amaranthus retoflexus (AMARE); assay: Post-emergence Test, Amaranthus retoflexus (AMARE); parameters: key to percentage damage caused to the plant, AMARE (five-point scale): 5=81-100%, 4=61-80%, 3=41-60%, 2=21-40%, 1=0-20% damage
Procedure, shortened: as §1

CCn1c(Cn2cc([N+](=O)[O-])c(C)n2)cc(=O)c(C(=O)O)c1-c1ccc(Cl)c(Cl)c1 [Compound 64, 2-(3,4-dichlorophenyl)-1-ethyl-6-[(3-methyl-4-nitro-pyrazol-1-yl)methyl]-4-oxo-pyridine-3-carboxylic acid]
Pre-emergence Test SETFA, percentage damage caused to the plant (five-point scale) (Setaria faberi (SETFA) [1]; 250 g/Ha (*)): 2 (2=21-40%) | Pre-emergence Test ECHCG, percentage damage caused to the plant (five-point scale) ([2]; 250 g/Ha (*)): 0 | Pre-emergence Test ZEAMX, percentage damage caused to the plant (five-point scale) (Zea mays (ZEAMX) [3]; 250 g/Ha (*)): 0 | Pre-emergence Test IPOHE, percentage damage caused to the plant (five-point scale) ([4]; 250 g/Ha (*)): 3 (3=41-60%) | Pre-emergence Test AMAPA, percentage damage caused to the plant (five-point scale) ([5]; 250 g/Ha (*)): 1 (1=0-20%) | Pre-emergence Test AMARE, percentage damage caused to the plant (five-point scale) ([6]; 250 g/Ha (*)): 0 | percentage damage caused to the plant, SETFA (five-point scale) (Setaria faberi (SETFA) [7]; 250 g/Ha): 2 (2=21-40%) | percentage damage caused to the plant, ECHCG (five-point scale) ([8]; 250 g/Ha): 3 (3=41-60%) | percentage damage caused to the plant, ZEAMX (five-point scale) (Zea mays (ZEAMX) [9]; 250 g/Ha): 1 (1=0-20%) | percentage damage caused to the plant, IPOHE (five-point scale) ([10]; 250 g/Ha): 1 (1=0-20%) | percentage damage caused to the plant, AMAPA (five-point scale) ([11]; 250 g/Ha): 2 (2=21-40%) | percentage damage caused to the plant, AMARE (five-point scale) ([12]; 250 g/Ha): 3 (3=41-60%)

CCn1c(Cn2nc(C(F)(F)F)cc2O)cc(=O)c(C(=O)O)c1-c1ccc(Cl)c(Cl)c1 [Compound 147, 2-(3,4-dichlorophenyl)-1-ethyl-6-[[5-hydroxy-3-(trifluoromethyl)pyrazol-1-yl]methyl]-4-oxo-pyridine-3-carboxylic acid]
Pre-emergence Test SETFA, percentage damage caused to the plant (five-point scale) (Setaria faberi (SETFA) [1]; 1000 g/ha): 1 (1=0-20%) | Pre-emergence Test ECHCG, percentage damage caused to the plant (five-point scale) ([2]; 1000 g/ha): 0 | Pre-emergence Test ZEAMX, percentage damage caused to the plant (five-point scale) (Zea mays (ZEAMX) [3]; 1000 g/ha): 0 | Pre-emergence Test IPOHE, percentage damage caused to the plant (five-point scale) ([4]; 1000 g/ha): 0 | Pre-emergence Test AMAPA, percentage damage caused to the plant (five-point scale) ([5]; 1000 g/ha): 1 (1=0-20%) | Pre-emergence Test AMARE, percentage damage caused to the plant (five-point scale) ([6]; 1000 g/ha): 0 | percentage damage caused to the plant, SETFA (five-point scale) (Setaria faberi (SETFA) [7]; 1000 g/ha): 0 | percentage damage caused to the plant, ECHCG (five-point scale) ([8]; 1000 g/ha): 0 | percentage damage caused to the plant, ZEAMX (five-point scale) (Zea mays (ZEAMX) [9]; 1000 g/ha): 0 | percentage damage caused to the plant, IPOHE (five-point scale) ([10]; 1000 g/ha): 1 (1=0-20%) | percentage damage caused to the plant, AMAPA (five-point scale) ([11]; 1000 g/ha): 0 | percentage damage caused to the plant, AMARE (five-point scale) ([12]; 1000 g/ha): 1 (1=0-20%)

CCOCc1ccn(Cc2cc(=O)c(C(=O)O)c(-c3ccc(Cl)c(Cl)c3)n2CC)n1 [Compound 173, 2-(3,4-dichlorophenyl)-6-[[3-(ethoxymethyl)pyrazol-1-yl]methyl]-1-ethyl-4-oxo-pyridine-3-carboxylic acid]
Pre-emergence Test SETFA, percentage damage caused to the plant (five-point scale) (Setaria faberi (SETFA) [1]; 1000 g/ha): 4 (4=61-80%) | Pre-emergence Test ECHCG, percentage damage caused to the plant (five-point scale) ([2]; 1000 g/ha): 4 (4=61-80%) | Pre-emergence Test ZEAMX, percentage damage caused to the plant (five-point scale) (Zea mays (ZEAMX) [3]; 1000 g/ha): 0 | Pre-emergence Test IPOHE, percentage damage caused to the plant (five-point scale) ([4]; 1000 g/ha): 3 (3=41-60%) | Pre-emergence Test AMAPA, percentage damage caused to the plant (five-point scale) ([5]; 1000 g/ha): 0 | Pre-emergence Test AMARE, percentage damage caused to the plant (five-point scale) ([6]; 1000 g/ha): 0 | percentage damage caused to the plant, SETFA (five-point scale) (Setaria faberi (SETFA) [7]; 250 g/Ha): 1 (1=0-20%) | percentage damage caused to the plant, SETFA (five-point scale) (Setaria faberi (SETFA) [7]; 1000 g/ha): 4 (4=61-80%) | percentage damage caused to the plant, ECHCG (five-point scale) ([8]; 250 g/Ha): 2 (2=21-40%) | percentage damage caused to the plant, ECHCG (five-point scale) ([8]; 1000 g/ha): 4 (4=61-80%) | percentage damage caused to the plant, ZEAMX (five-point scale) (Zea mays (ZEAMX) [9]; 250 g/Ha): 0 | percentage damage caused to the plant, ZEAMX (five-point scale) (Zea mays (ZEAMX) [9]; 1000 g/ha): 1 (1=0-20%) | percentage damage caused to the plant, IPOHE (five-point scale) ([10]; 250 g/Ha): 1 (1=0-20%) | percentage damage caused to the plant, IPOHE (five-point scale) ([10]; 1000 g/ha): 2 (2=21-40%) | percentage damage caused to the plant, AMAPA (five-point scale) ([11]; 250 g/Ha): 0 | percentage damage caused to the plant, AMAPA (five-point scale) ([11]; 1000 g/ha): 1 (1=0-20%) | percentage damage caused to the plant, AMARE (five-point scale) ([12]; 250 g/Ha): 0 | percentage damage caused to the plant, AMARE (five-point scale) ([12]; 1000 g/ha): 1 (1=0-20%)

Source: patent publication US20250098679A1, “HERBICIDAL PYRIDONE DERIVATIVES” (SYNGENTA CROP PROTECTION AG, priority 2021, published 2025)
